The record followed here is patent US8916702B2 (priority 2012, dated 2014).

One assay has as its system HCV pseudoparticles (genotype 1a HCV E1 and E2 envelope, H77C isolate). Nature of the assay: microbe, parasite or virus in culture. As to conditions: Hepatitis C virus, Huh-7, 48 h, HCV pseudoparticle infection of Huh7 cells, luciferase 2 days after infection; average of duplicates. The class given is cell-based.
Turning to `COC(=O)[C@H](CNC(=O)C(=O)NC1CCCCC1C)NC(=O)c1ccc(Nc2nc(NC3(c4ccc(Cl)cc4)CC3)nc(OCC(F)(F)F)n2)cc1` (stereo partly drawn) [Compound 1061], a half-maximal effect (EC50) was put at 1.58 nM.
The same measure, in the same setting: the value for `COC(=O)[C@H](CNC(=O)C(=O)NC1CCC(C)CC1)NC(=O)c1ccc(Nc2nc(NC3(c4ccc(Cl)cc4)CC3)nc(OCC(F)(F)F)n2)cc1` (stereo partly drawn) [Compound 1064] was 1.89 nM; that for `CCC1CCC(NC(=O)C(=O)NC[C@H](NC(=O)c2ccc(Nc3nc(NC4(c5ccc(Cl)cc5)CC4)nc(OCC(F)(F)F)n3)cc2)C(=O)OC)CC1` (stereo partly drawn) [Compound 1065] was 0.59 nM.
Same read-out and setting: the same measure for `O=C(NC[C@H](NC(=O)c1ccc(Nc2nc(NC3(c4ccc(Cl)cc4)CC3)nc(OCC(F)(F)F)n2)cc1)C(=O)O)C(=O)NC1CCC(O)CC1` (stereo partly drawn) [Compound 1078]: 11.9 nM; for `CC(C)(C)OC(=O)NC1CCCC(NC(=O)C(=O)NC[C@H](NC(=O)c2ccc(Nc3nc(NC4(c5ccc(Cl)cc5)CC4)nc(OCC(F)(F)F)n3)cc2)C(=O)O)C1` (stereo partly drawn) [Compound 1083]: 1.78 nM; for `C[C@]12C3C1[C@H]3C[C@H]2NC(=O)C(=O)NC[C@H](NC(=O)c1ccc(Nc2nc(NC3(c4ccc(Cl)cc4)CC3)nc(OCC(F)(F)F)n2)cc1)C(=O)O` (stereo partly drawn) [Compound 1084]: 0.26 nM.

The assay is the same for the next values; noted with them: Hepatitis C virus, Huh-7, 48 h, read-out: Activity (EC50 class), HCV pseudoparticle infection of Huh7 cells, luciferase 2 days after infection; EC50 expressed as class A/B.
`COC(=O)[C@H](CNC(=O)C(=O)NC1CCCC(C)C1)NC(=O)c1ccc(Nc2nc(NC3(c4ccc(Cl)cc4)CC3)nc(OCC(F)(F)F)n2)cc1` (stereo partly drawn) [Compound 1059]: the EC50 (usually the concentration giving half of the maximal effect) lay within 0.01 to 10 nM.
As for `COC(=O)[C@H](CNC(=O)C(=O)NC1CC(C)CC(C)(C)C1)NC(=O)c1ccc(Nc2nc(NC3(c4ccc(Cl)cc4)CC3)nc(OCC(F)(F)F)n2)cc1` (stereo partly drawn) [Compound 1060], the EC50 fell in the range of 0.01 to 10 nM.
On the same count and under the same terms, the value for `COC(=O)[C@H](CNC(=O)C(=O)NC1CCCCC1C)NC(=O)c1ccc(Nc2nc(NC3(c4ccc(Cl)cc4)CC3)nc(OCC(F)(F)F)n2)cc1` (stereo partly drawn) [Compound 1061] was 0.01 to 10 nM; that for `COC(=O)[C@H](CNC(=O)C(=O)NC1CCC(C(C)(C)C)CC1)NC(=O)c1ccc(Nc2nc(NC3(c4ccc(Cl)cc4)CC3)nc(OCC(F)(F)F)n2)cc1` (stereo partly drawn) [Compound 1062] was 0.01 to 10 nM.
On the same count and under the same terms, the same measure for `CCC(CC)NC(=O)C(=O)NC[C@@H](NC(=O)c1ccc(Nc2nc(NC3(c4ccc(Cl)cc4)CC3)nc(OCC(F)(F)F)n2)cc1)C(=O)OC` [Compound 1063]: 0.01 to 10 nM; for `COC(=O)[C@H](CNC(=O)C(=O)NC1CCC(C)CC1)NC(=O)c1ccc(Nc2nc(NC3(c4ccc(Cl)cc4)CC3)nc(OCC(F)(F)F)n2)cc1` (stereo partly drawn) [Compound 1064]: 0.01 to 10 nM.
Regarding `CCC1CCC(NC(=O)C(=O)NC[C@H](NC(=O)c2ccc(Nc3nc(NC4(c5ccc(Cl)cc5)CC4)nc(OCC(F)(F)F)n3)cc2)C(=O)OC)CC1` (stereo partly drawn) [Compound 1065], the EC50 was 0.01 to 10 nM.
Still for that read-out and setting: the value for `COC(=O)[C@H](CNC(=O)C(=O)N[C@H]1C[C@@H]2C[C@@H]([C@@H]1C)C2(C)C)NC(=O)c1ccc(Nc2nc(NC3(c4ccc(Cl)cc4)CC3)nc(OCC(F)(F)F)n2)cc1` [Compound 1066] was 0.01 to 10 nM; that for `COC(=O)[C@H](CNC(=O)C(=O)N[C@H]1C[C@H](C)CC[C@H]1C(C)C)NC(=O)c1ccc(Nc2nc(NC3(c4ccc(Cl)cc4)CC3)nc(OCC(F)(F)F)n2)cc1` [Compound 1067] was 0.01 to 10 nM; that for `COC(=O)[C@H](CNC(=O)C(=O)NC1CCCCCCC1)NC(=O)c1ccc(Nc2nc(NC3(c4ccc(Cl)cc4)CC3)nc(OCC(F)(F)F)n2)cc1` [Compound 1068] was 0.01 to 10 nM.
On the same count and under the same terms, the value for `COC(=O)[C@H](CNC(=O)C(=O)N[C@@H]1C[C@H]2C[C@@H]([C@H]1C)C2(C)C)NC(=O)c1ccc(Nc2nc(NC3(c4ccc(Cl)cc4)CC3)nc(OCC(F)(F)F)n2)cc1` [Compound 1069] was 0.01 to 10 nM; that for `COC(=O)[C@H](CCNC(=O)C(=O)NC1CCCC(O)C1)NC(=O)c1ccc(Nc2nc(NC3(c4ccc(Cl)cc4)CC3)nc(OCC(F)(F)F)n2)cc1` (stereo partly drawn) [Compound 1070] was 0.01 to 10 nM.
As to `COC(=O)[C@H](CCNC(=O)C(=O)NC1CC(C)(C)CC(C)(C)C1)NC(=O)c1ccc(Nc2nc(NC3(c4ccc(Cl)cc4)CC3)nc(OCC(F)(F)F)n2)cc1` [Compound 1071], the EC50 is 0.01 to 10 nM.
The same measure, in the same setting: the same measure for `COC(=O)[C@H](CCNC(=O)C(=O)NC1CCNC(=O)C1)NC(=O)c1ccc(Nc2nc(NC3(c4ccc(Cl)cc4)CC3)nc(OCC(F)(F)F)n2)cc1` (stereo partly drawn) [Compound 1072]: 0.01 to 10 nM; for `COC(=O)[C@H](CCNC(=O)C(=O)NC1CCC(O)CC1)NC(=O)c1ccc(Nc2nc(NC3(c4ccc(Cl)cc4)CC3)nc(OCC(F)(F)F)n2)cc1` (stereo partly drawn) [Compound 1073]: 0.01 to 10 nM.
For the compound `COC(=O)[C@H](CCNC(=O)C(=O)N[C@H]1C[C@H]2C[C@@H]([C@H]1C)C2(C)C)NC(=O)c1ccc(Nc2nc(NC3(c4ccc(Cl)cc4)CC3)nc(OCC(F)(F)F)n2)cc1` [Compound 1074], the EC50 lay within 0.01 to 10 nM.
The same measure, in the same setting: the same measure for `COC(=O)[C@H](CCNC(=O)C(=O)NC1CCCCC1C)NC(=O)c1ccc(Nc2nc(NC3(c4ccc(Cl)cc4)CC3)nc(OCC(F)(F)F)n2)cc1` (stereo partly drawn) [Compound 1075]: 0.01 to 10 nM; for `COC(=O)[C@H](CCNC(=O)C(=O)NC1CCCC(C)C1)NC(=O)c1ccc(Nc2nc(NC3(c4ccc(Cl)cc4)CC3)nc(OCC(F)(F)F)n2)cc1` (stereo partly drawn) [Compound 1076]: 0.01 to 10 nM; for `CC1(C)CC(NC(=O)C(=O)NC[C@H](NC(=O)c2ccc(Nc3nc(NC4(c5ccc(Cl)cc5)CC4)nc(OCC(F)(F)F)n3)cc2)C(=O)O)CC(C)(C)C1` [Compound 1077]: 0.01 to 10 nM.
Turning to `O=C(NC[C@H](NC(=O)c1ccc(Nc2nc(NC3(c4ccc(Cl)cc4)CC3)nc(OCC(F)(F)F)n2)cc1)C(=O)O)C(=O)NC1CCC(O)CC1` (stereo partly drawn) [Compound 1078], the EC50 lay within 10 to 1000 nM.
For `CC(C)(C)OC(=O)N1CCC(NC(=O)C(=O)NC[C@H](NC(=O)c2ccc(Nc3nc(NC4(c5ccc(Cl)cc5)CC4)nc(OCC(F)(F)F)n3)cc2)C(=O)O)CC1` [Compound 1079], the EC50 was in the range of 0.01 to 10 nM.
On to `O=C(NC[C@H](NC(=O)c1ccc(Nc2nc(NC3(c4ccc(Cl)cc4)CC3)nc(OCC(F)(F)F)n2)cc1)C(=O)O)C(=O)N[C@@H]1C[C@@H]2CC[C@H]1C2` [Compound 1080], for which the EC50 was 0.01 to 10 nM.
Same read-out and setting: the value for `O=C(NC[C@H](NC(=O)c1ccc(Nc2nc(NC3(c4ccc(Cl)cc4)CC3)nc(OCC(F)(F)F)n2)cc1)C(=O)O)C(=O)NC1CCCCC1O` (stereo partly drawn) [Compound 1081] was 0.01 to 10 nM; that for `O=C1CC(NC(=O)C(=O)NC[C@H](NC(=O)c2ccc(Nc3nc(NC4(c5ccc(Cl)cc5)CC4)nc(OCC(F)(F)F)n3)cc2)C(=O)O)CCN1` (stereo partly drawn) [Compound 1082] was 0.01 to 10 nM; that for `CC(C)(C)OC(=O)NC1CCCC(NC(=O)C(=O)NC[C@H](NC(=O)c2ccc(Nc3nc(NC4(c5ccc(Cl)cc5)CC4)nc(OCC(F)(F)F)n3)cc2)C(=O)O)C1` (stereo partly drawn) [Compound 1083] was 0.01 to 10 nM.
On the same count and under the same terms, the value for `C[C@]12C3C1[C@H]3C[C@H]2NC(=O)C(=O)NC[C@H](NC(=O)c1ccc(Nc2nc(NC3(c4ccc(Cl)cc4)CC3)nc(OCC(F)(F)F)n2)cc1)C(=O)O` (stereo partly drawn) [Compound 1084] was 0.01 to 10 nM; that for `CC(C)(C)OC(=O)NC1CCC(NC(=O)C(=O)NC[C@H](NC(=O)c2ccc(Nc3nc(NC4(c5ccc(Cl)cc5)CC4)nc(OCC(F)(F)F)n3)cc2)C(=O)O)CC1` (stereo partly drawn) [Compound 1085] was 0.01 to 10 nM.
On the same count and under the same terms, the same measure for `O=C(NC[C@H](NC(=O)c1ccc(Nc2nc(NC3(c4ccc(Cl)cc4)CC3)nc(OCC(F)(F)F)n2)cc1)C(=O)O)C(=O)NC1CCCC(O)C1` (stereo partly drawn) [Compound 1086]: 0.01 to 10 nM.
For `CC1CCCC(NC(=O)C(=O)NC[C@H](NC(=O)c2ccc(Nc3nc(NC4(c5ccc(Cl)cc5)CC4)nc(OCC(F)(F)F)n3)cc2)C(=O)O)C1` (stereo partly drawn) [Compound 1087], the 50% effective concentration (EC50) is 0.01 to 10 nM.
Same read-out and setting: the same measure for `CC1CC(NC(=O)C(=O)NC[C@H](NC(=O)c2ccc(Nc3nc(NC4(c5ccc(Cl)cc5)CC4)nc(OCC(F)(F)F)n3)cc2)C(=O)O)CC(C)(C)C1` (stereo partly drawn) [Compound 1088]: 0.01 to 10 nM; for `CC1CCCCC1NC(=O)C(=O)NC[C@H](NC(=O)c1ccc(Nc2nc(NC3(c4ccc(Cl)cc4)CC3)nc(OCC(F)(F)F)n2)cc1)C(=O)O` (stereo partly drawn) [Compound 1089]: 0.01 to 10 nM; for `CC(C)(C)C1CCC(NC(=O)C(=O)NC[C@H](NC(=O)c2ccc(Nc3nc(NC4(c5ccc(Cl)cc5)CC4)nc(OCC(F)(F)F)n3)cc2)C(=O)O)CC1` (stereo partly drawn) [Compound 1090]: 0.01 to 10 nM.
`CCC(CC)NC(=O)C(=O)NC[C@H](NC(=O)c1ccc(Nc2nc(NC3(c4ccc(Cl)cc4)CC3)nc(OCC(F)(F)F)n2)cc1)C(=O)O` [Compound 1091]: the EC50 was 0.01 to 10 nM.
